Consider 2 compounds from EP4427758A1, “NEW SYNERGISTIC ANTI-INFLAMMATORY, ANTIOXIDANT AND ANTIBACTERIAL ASSOCIATION” (NOOS S.r.l., priority 2023, dated 2024).

Data set [1] can be described thus: NBT assay of antioxidant activity (superoxide scavenging). The class given is biochemical. To be noted: NBT Test (O2^-•); read-out: Scavenging activity of the free radicals IC50.
Experimental: For the inactivation of bacteria by heat, one started at a concentration of 4×10^9 CFU/mL. The bacteria were then centrifuged at 4000 rpm for 10 minutes, the supernatant discarded and replaced with 1 ml of 0.9% NaCl saline solution. The heat inactivation occurred at the temperature of 85°C for 15 minutes.
NBT assay (nitrobluetetrazolium) evaluates the capability of locking the formation of the superoxide radical ^·O2^-; the more ^·O2^- is produced, the more NBT is reduced in formazan. The capability of molecules and compounds to inhibit the NBT reduction by ^·O2^- in presence of β-nicotinammide adenin dinucleotide (β-NADH) and phenazinamethosulfate (PM) is then tested.
The spectrophometric reading was performed by kinetics, by measuring the OD values (λmax 560 nm) immediately and after 15 sec. The absorbance variation was used to calculate the inhibition percentage with respect to the control (solution of EtOH and of the solvent in which the different samples are dissolved).
To this purpose, on previously heat inactivated mixtures of bacteria, 8 serial dilutions were performed according to the scheme reported in figure 1; 20 µL of each dilution were then used in all assays of antioxidant activity according to the protocol indications.
Data set [2] concerns Haemophilus influenzae DSM 4690. The data set is described as follows: MIC determination by plate microdilution. The class given is cell-based. The conditions noted are these: DSM4690, H. influenzae, 24 hours at 37°C, anaerobiosis. Here is the method: (§1) The supernatant from Streptococcus salivarius K12 was used as reference. To this purpose, the Minimum Inhibitory Concentration (MIC) was evaluated. The pathogen microorganisms were the following ones: Staphylococcus aureus NCTC 6571, Streptococcus pyogenes LMG 21599, Streptococcus pneumoniae DSM 20566, Moraxella chatarralis DSM 9143, Haemophilus influenzae DSM 4690.
(§2) L. reuteri LMG P-27481 and S. salivarius K12 were subcultivated on agar plates from cryopreserved cultures. All pathogens, except for H. influenzae DSM 4690, were cultivated on agar BHI (Brain Heart Infusion, Oxoid). The subculture of H. influenzae DSM 4690 requested the presence of traces of lysed red blood cells in the medium.
(§3) In short, the supernatants were obtained for centrifugation of liquid cultures of L. reuteri LMG P27481 and S. salivarius K12, sterilized by filtration. The aliquots were diluted in series for determining the vital count. The supernatants were diluted in series from 100% to 0.19% (v:v).
(§4) The pathogen strains were dosed optically by using the spectrophotometer at OD600 between 0.08-0.100 and diluted 100 times in Schaedler broth or sterile supernatants (to obtain the concentration of 100%).
(§5) All samples were incubated for 24 hours at 37°C under aerobic conditions for all strains except for H. influenzae DSM 4690 which required anaerobiosis conditions.
(§6) Moreover, a control with serial dilutions of DMSO was performed in order to exclude that the presence of this diluent could exert an inhibitory effect on the pathogens.

For data set [3], the system named is Moraxella chatarralis DSM 9143. The data set can be described thus: MIC determination by plate microdilution. The conditions noted are these: DSM9143, M. chatarralis, 24 hours at 37°C. The format is cell-based. The procedure:
as §1, §2, §3, §4, §5, §6

The subject of data set [4] is Staphylococcus aureus NCTC 6571. The data set is described as follows: MIC determination by plate microdilution. The format is cell-based. To be noted: NCTC6571, S. aureus, 24 hours at 37°C. The procedure: as §1, §2, §3, §4, §5, §6
Data set [5] relates to Streptococcus pneumoniae DSM 20566. The data set can be described thus: MIC determination by plate microdilution. The format is cell-based. To be noted: DSM20566, S. pneumoniae, 24 hours at 37°C. The procedure:
as §1, §2, §3, §4, §5, §6

Data set [6] deals with Streptococcus pyogenes LMG 21599. The data set is described as follows: MIC determination by plate microdilution. The format is cell-based. To be noted: LMG21599, S. pyogenes, 24 hours at 37°C. The procedure:
as §1, §2, §3, §4, §5, §6

The test system of a further data set is all tested pathogens. The data set can be described thus: MIC determination, summary over all tested pathogens. The class given is cell-based. To be noted: range over all tested pathogens. The procedure: as §1, §2, §3, §4
All samples were incubated for 24 hours at 37°C under aerobic conditions for all strains except for H. influenzae DSM 4690 which required anaerobiosis conditions. […]

For a further data set, the system named is L. reuteri LMG P-27481. The data set can be described thus: Tolerance test: vitality of L. reuteri LMG P-27481 in presence of resveratrol in simulated saliva. The class given is cell-based, Lactobacillus (Limosilactobacillus) reuteri. Here is the method: The simulated saliva (SS) was prepared with 8 g/l of sodium chloride, 0.19 g/l monobasic potassium phosphate, 2.38 g/l sodium phosphate (pH 6.8) and then sterilized (Alanzi et al., 2018). The cryopreserve stock of L. reuteri LMG P-27481 strain was controlled in order to verify the purity thereof and then cultivated on MRS Broth (De Man Rogosa Sharpe, Difco) under microaerophilic conditions at 37°C for 18 hours. The cultures in MRS broth of L. reuteri LMG P-27481 grown under microaerophilic conditions at 37°C for 18 hours were centrifuged, the supernatant discarded an the pellets were washed with sterile demineralized water. […] A test tube with only SS was used as positive control of survival. L. reuteri LMG P-27481 was analysed according to the standard of Mc Farland in order to obtain a vital load of 3×10^8 CFU/ml in the test tubes. […] Aliquots were collected after 5, 10, 30 and 60 minutes for determining vitality. All plates were incubated for 72 hours at 37°C under anaerobic conditions.

Another data set deals with HaCat. cells. The class given is cell-based. An excerpt:
MTT test is a colorimetric assay which exploits the capability of cells to convert, at mitochondrial level, the bromide of 3-(4,5-dimethylthiazol-2-il)-2,5-diphenyltetrazolium in the related salt, by evaluating the cell viability. The produced salt is solubilized in organic solvent in order to obtain a homogeneous solution in the single well, measurable spectrophotometrically. Besides, the crystal violet assay is based upon the capability of the homonymous […] dye to bind to DNA of the cells in culture and to return in this way a reliable estimation of the number of cells. […] Before colouring, washings in PBS were carried out. 50 µL of dye (MTT (5 mg/mL in PBS); Crystal violet (2,5 mg/mL in MeOH 20%)) were then added to each well and left in incubation at 37°C for 2 hours (MTT) or stirred on tilting plate for 20 min (Crystal violet). The exceeding dye was washed and the dye was solubilized in organic solvent (DMSO) in order to obtain a homogenous solution in the single well, measurable spectrophotometrically. The measurement of absorbance of the single wells was performed in a plate reader, at the wavelength of 570 nm, by normalizing the values with respect to the control.

For a further data set, the system named is IL-37. The data set can be described thus: Gene expression by real-time PCR in 3D model of in vitro reconstituted skin (EpiDermFT). The format is cell-based. The conditions noted are these: vs control, after 24 hours. From the text:
(§7) Evaluation of the gene expression of some cytokines (IL-25, IL-33, IL-37) and of filaggrin (FLG), involucrin (IVL) and loricrin (LOR) in a complex 3D model of in vitro reconstituted skin (EpiDermFT - MATTEK).
(§8) The 3D models of in vitro reconstituted skin constitute optimum systems capable of simulating well the functionalities of a complex organ such as skin and the interactions which are established between numerous cell populations composing it. Then, they try to free from the excessive simplification represented by one single cell line put in culture. The cytokines IL-25 and IL-33 are pro-inflammatory cytokines over-produced by the keratinocytes and by the surface layers of the skin after an insult; on the contrary the cytokine IL-37 is an anti-inflammatory cytokine. At last, the proteins filaggrin (FLG), involucrin (IVL) and loricrin (LOR), are proteins produced by epidermis, fundamental in the constitution of the barrier which protects from external agents and respond to cytokine signals. In particular, during an inflammatory event, the expression of these genes is sub-regulated; on the contrary, an anti-inflammatory state tends to over-express the genes FLG, IVL, LOR.
(§9) The extraction of total RNA was performed by QlAzol Lysis Reagent by following the instructions provided by the firm (Qiagen). The retro-transcription reactions were performed on 4 µg of total RNA by following the instructions provided by the protocol of the kit PROMEGA "GoTaq 2 Step RT qPCR System". The amplification for determining the gene expression, by real-time PCR technique, was performed on BioRad CFX96 machine and the related quantification was performed by the method of 2^-ΔΔCt.

A further data set deals with filaggrin (FLG). The description is as above. The format is cell-based. The conditions noted are these: vs control.
Text: as §7, §8, §9

The test system of a further data set is involucrin (IVL). The data set is described as above. The format is cell-based. The conditions noted are these: vs control.
Text: as §7, §8, §9

In another data set the test system is loricrin (LOR). The description is as above. The class given is cell-based. The conditions noted are these: vs control.
Text: as §7, §8, §9

Each structure is given as a SMILES string. Values after ≈ are worked out from the molar mass of the structure shown.

Regarding `O=C1O[C@H]([C@@H](O)CO)C(O)=C1O` [Ascorbic Acid], in [1], the half-maximal inhibitory concentration (IC50) was 665 ± 26 µM.
Turning to `Oc1ccc(/C=C/c2cc(O)cc(O)c2)cc1` [Resveratrol, 3,5,4'-trihydroxy-trans-stilbene], the MIC in [2] is 80 µg/mL (≈ 350 µM); in [3], 160 µg/mL (≈ 701 µM); in [4], 160 µg/mL (≈ 701 µM); in data set [5] it was 80 µg/mL (≈ 350 µM); in [6] it was 160 µg/mL (≈ 701 µM). In addition, in the data set with all tested pathogens, the inhibiting concentrations was in the range of 80 to 160 µg/mL. The “%S (% of survival of microorganisms)” value is 99.9% in the data set with L. reuteri LMG P-27481 (SS + 0.5 mg/ml Resveratrol, T5); 99.6% with L. reuteri LMG P-27481 (SS + 0.5 mg/ml Resveratrol, T10); 99.3% in the data set with L. reuteri LMG P-27481 (SS + 0.5 mg/ml Resveratrol, T30); 99.2% in the data set with L. reuteri LMG P-27481 (SS + 0.5 mg/ml Resveratrol, T60); 99.8% in the data set on L. reuteri LMG P-27481 (SS + 1 mg/ml Resveratrol, T5); 99.6% in the data set with L. reuteri LMG P-27481 (SS + 1 mg/ml Resveratrol, T10). Moreover, the “%S (% of survival of microorganisms)” value in the data set on L. reuteri LMG P-27481 (SS + 1 mg/ml Resveratrol, T30) was 99.6%; with L. reuteri LMG P-27481 (SS + 1 mg/ml Resveratrol, T60) it was 99.4%; in the data set with L. reuteri LMG P-27481 (SS + 2.5 mg/ml Resveratrol, T5), 99.9%; in the data set on L. reuteri LMG P-27481 (SS + 2.5 mg/ml Resveratrol, T10), 99.6%; in the data set with L. reuteri LMG P-27481 (SS + 2.5 mg/ml Resveratrol, T30), 99.5%; in the data set with L. reuteri LMG P-27481 (SS + 2.5 mg/ml Resveratrol, T60) it was 99.2%. For the same compound, the “%S (% of survival of microorganisms)” value is 99.7% with L. reuteri LMG P-27481 (SS + 5 mg/ml Resveratrol, T5 (5 minutes contact), 3×10^8 CFU/ml); 99.5% in the data set on L. reuteri LMG P-27481 (SS + 5 mg/ml Resveratrol, T10); 99.3% with L. reuteri LMG P-27481 (SS + 5 mg/ml Resveratrol, T30); 99.0% in the data set on L. reuteri LMG P-27481 (SS + 5 mg/ml Resveratrol, T60); “higher than 99%” with L. reuteri LMG P-27481 (SS + 5 mg/ml Resveratrol, T60, listed as resveratrol). For the same compound, in the data set with HaCat. cells, the “cell count (crystal violet)” value is “decrease in vitality and cell count”. For the same compound, the “cell viability (MTT)” value with HaCat. cells was “decrease in vitality”. The “expression of IL-37” value in the data set on IL-37 is listed as “under-expression”. For the same compound, the “expression of FLG” value with filaggrin (FLG) is listed as “minimum expression variations”. The “expression of IVL” value with involucrin (IVL) is on record as “minimum expression variations”. The “expression of LOR” value in the data set with loricrin (LOR) was “minimum expression variations”.
